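Briefly, cells in 96-well plates were exposed to five compound concentrations for 48 h, and endpoints were estimated by linear interpolation. At the GI50, growth is halved. TGI denotes the concentration required for complete inhibition of growth.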
Tests used:
Assay in all cases: inhibition of tumour cell growth, NCI panel, 48 h
MCF7 breast = tested on: MCF7 breast
MDA-MB-231 breast = tested on: MDA-MB-231 breast
U251 CNS = tested on: U251 CNS
TK-10 renal = tested on: TK-10 renal
PC-3 prostate = tested on: PC-3 prostate
NCI/ADR-RES ovarian = tested on: NCI/ADR-RES ovarian
ACHN renal = tested on: ACHN renal
NCI-H460 lung = tested on: NCI-H460 lung
786-0 renal = tested on: 786-0 renal
CCRF-CEM leukemia = tested on: CCRF-CEM leukemia
NCI-H522 lung = tested on: NCI-H522 lung
SF-268 CNS = tested on: SF-268 CNS
SNB-19 CNS = tested on: SNB-19 CNS
CAKI-1 renal = tested on: CAKI-1 renal
COLO 205 colon = tested on: COLO 205 colon
HT29 colon = tested on: HT29 colon
LOX IMVI melanoma = tested on: LOX IMVI melanoma
DU-145 prostate = tested on: DU-145 prostate
HOP-92 NSCLC = tested on: HOP-92 NSCLC
SK-OV-3 ovarian = tested on: SK-OV-3 ovarian
SN12C renal = tested on: SN12C renal
SK-MEL-2 melanoma = tested on: SK-MEL-2 melanoma
NCI-H226 lung = tested on: NCI-H226 lung
HCC-2998 colon = tested on: HCC-2998 colon
UACC-257 melanoma = tested on: UACC-257 melanoma
HCT-116 colon = tested on: HCT-116 colon
BT-549 breast = tested on: BT-549 breast
OVCAR-5 ovarian = tested on: OVCAR-5 ovarian
UO-31 renal = tested on: UO-31 renal
SW-620 colon = tested on: SW-620 colon
OVCAR-8 ovarian = tested on: OVCAR-8 ovarian
T-47D breast = tested on: T-47D breast
SNB-75 CNS = tested on: SNB-75 CNS
A498 renal = tested on: A498 renal
SK-MEL-28 melanoma = tested on: SK-MEL-28 melanoma
HCT-15 colon = tested on: HCT-15 colon
A549 NSCLC = tested on: A549 NSCLC
OVCAR-4 ovarian = tested on: OVCAR-4 ovarian
MDA-MB-435 = tested on: MDA-MB-435
M14 melanoma = tested on: M14 melanoma
KM12 colon = tested on: KM12 colon
NCI-H23 lung = tested on: NCI-H23 lung
MOLT-4 leukemia = tested on: MOLT-4 leukemia
OVCAR-3 ovarian = tested on: OVCAR-3 ovarian
K-562 leukemia = tested on: K-562 leukemia
HS 578T breast = tested on: HS 578T breast
SF-539 CNS = tested on: SF-539 CNS
HOP-62 NSCLC = tested on: HOP-62 NSCLC
HL-60(TB) leukemia = tested on: HL-60(TB) leukemia
SK-MEL-5 melanoma = tested on: SK-MEL-5 melanoma
IGROV1 ovarian = tested on: IGROV1 ovarian
RPMI-8226 leukemia = tested on: RPMI-8226 leukemia
SF-295 CNS = tested on: SF-295 CNS

SMILES: COc1cc(/C=C/c2cc(/C=C/c3ccc(O)c(OC)c3)n(C(N)=O)n2)ccc1O
- GI50 (MCF7 breast): 0.314 µM
- TGI (MCF7 breast): 1.45 µM
- GI50 (MDA-MB-231 breast): 0.655 µM
- TGI (MDA-MB-231 breast): 12.8 µM
- GI50 (U251 CNS): 0.526 µM
- TGI (U251 CNS): 10.5 µM
- GI50 (TK-10 renal): 1.3 µM
- TGI (TK-10 renal): 4.73 µM
- GI50 (PC-3 prostate): 0.439 µM
- TGI (PC-3 prostate): 2.31 µM
- GI50 (NCI/ADR-RES ovarian): 0.435 µM
- TGI (NCI/ADR-RES ovarian): 4.44 µM
- GI50 (ACHN renal): 0.342 µM
- TGI (ACHN renal): 10.2 µM
- GI50 (NCI-H460 lung): 0.318 µM
- TGI (NCI-H460 lung): 1.3 µM
- GI50 (786-0 renal): 0.372 µM
- TGI (786-0 renal): 1.37 µM
- GI50 (CCRF-CEM leukemia): 0.295 µM
- TGI (CCRF-CEM leukemia): > 100 µM
- GI50 (NCI-H522 lung): 0.252 µM
- TGI (NCI-H522 lung): 0.964 µM
- GI50 (SF-268 CNS): 0.439 µM
- TGI (SF-268 CNS): 4.83 µM
- GI50 (SNB-19 CNS): 0.691 µM
- GI50 (CAKI-1 renal): 0.368 µM
- TGI (CAKI-1 renal): 10 µM
- GI50 (COLO 205 colon): 2.36 µM
- TGI (COLO 205 colon): 6.03 µM
- GI50 (HT29 colon): 2.18 µM
- TGI (HT29 colon): 5.28 µM
- GI50 (LOX IMVI melanoma): 0.493 µM
- TGI (LOX IMVI melanoma): 2.75 µM
- GI50 (DU-145 prostate): 0.482 µM
- TGI (DU-145 prostate): 1.63 µM
- GI50 (HOP-92 NSCLC): 0.861 µM
- TGI (HOP-92 NSCLC): 4.4 µM
- GI50 (SK-OV-3 ovarian): 0.392 µM
- TGI (SK-OV-3 ovarian): 1.93 µM
- GI50 (SN12C renal): 0.585 µM
- TGI (SN12C renal): 5.94 µM
- GI50 (SK-MEL-2 melanoma): 0.4 µM
- TGI (SK-MEL-2 melanoma): 1.13 µM
- GI50 (NCI-H226 lung): 1.38 µM
- TGI (NCI-H226 lung): 4.4 µM
- GI50 (HCC-2998 colon): 1.56 µM
- TGI (HCC-2998 colon): 11.2 µM
- GI50 (UACC-257 melanoma): 1.53 µM
- TGI (UACC-257 melanoma): 9.03 µM
- GI50 (HCT-116 colon): 0.314 µM
- TGI (HCT-116 colon): 1.11 µM
- GI50 (BT-549 breast): 0.395 µM
- TGI (BT-549 breast): 1.58 µM
- GI50 (OVCAR-5 ovarian): 1.76 µM
- TGI (OVCAR-5 ovarian): > 100 µM
- GI50 (UO-31 renal): 0.37 µM
- TGI (UO-31 renal): 1.69 µM
- GI50 (SW-620 colon): 0.398 µM
- TGI (SW-620 colon): 1.82 µM
- GI50 (OVCAR-8 ovarian): 0.543 µM
- TGI (OVCAR-8 ovarian): 22.8 µM
- GI50 (T-47D breast): 0.507 µM
- TGI (T-47D breast): 3.68 µM
- GI50 (SNB-75 CNS): 0.311 µM
- TGI (SNB-75 CNS): 1.26 µM
- GI50 (A498 renal): 1.12 µM
- TGI (A498 renal): 3.48 µM
- GI50 (SK-MEL-28 melanoma): 0.609 µM
- TGI (SK-MEL-28 melanoma): 3.26 µM
- GI50 (HCT-15 colon): 0.312 µM
- TGI (HCT-15 colon): 2.01 µM
- GI50 (A549 NSCLC): 0.491 µM
- TGI (A549 NSCLC): 11.3 µM
- GI50 (OVCAR-4 ovarian): 0.57 µM
- TGI (OVCAR-4 ovarian): 5.03 µM
- GI50 (MDA-MB-435): 0.102 µM
- TGI (MDA-MB-435): 0.346 µM
- GI50 (M14 melanoma): 0.283 µM
- TGI (M14 melanoma): 1.03 µM
- GI50 (KM12 colon): 0.351 µM
- TGI (KM12 colon): 1.86 µM
- GI50 (NCI-H23 lung): 0.647 µM
- TGI (NCI-H23 lung): 3.53 µM
- GI50 (MOLT-4 leukemia): 0.365 µM
- TGI (MOLT-4 leukemia): > 100 µM
- GI50 (OVCAR-3 ovarian): 0.427 µM
- TGI (OVCAR-3 ovarian): 2.19 µM
- GI50 (K-562 leukemia): 0.35 µM
- TGI (K-562 leukemia): > 100 µM
- GI50 (HS 578T breast): 0.259 µM
- TGI (HS 578T breast): 2.52 µM

SMILES: O=C1C(=O)/C(=C/c2ccccc2)CCCCCC/C1=C/c1ccccc1
- GI50 (MCF7 breast): 3.24 µM
- TGI (MCF7 breast): 31.8 µM
- GI50 (MDA-MB-231 breast): 2.63 µM
- TGI (MDA-MB-231 breast): 6.52 µM
- GI50 (U251 CNS): 1.62 µM
- TGI (U251 CNS): 2.97 µM
- GI50 (SF-539 CNS): 1.98 µM
- TGI (SF-539 CNS): 3.95 µM
- GI50 (PC-3 prostate): 3.19 µM
- TGI (PC-3 prostate): 17.1 µM
- GI50 (NCI/ADR-RES ovarian): 4.78 µM
- TGI (NCI/ADR-RES ovarian): > 100 µM
- GI50 (HOP-62 NSCLC): 3.44 µM
- TGI (HOP-62 NSCLC): 10.5 µM
- GI50 (ACHN renal): 2.57 µM
- TGI (ACHN renal): 6.5 µM
- GI50 (NCI-H460 lung): 2.43 µM
- TGI (NCI-H460 lung): 6.09 µM
- GI50 (786-0 renal): 1.82 µM
- TGI (786-0 renal): 3.33 µM
- GI50 (CCRF-CEM leukemia): 3.05 µM
- TGI (CCRF-CEM leukemia): 17.9 µM
- GI50 (HL-60(TB) leukemia): 2.96 µM
- TGI (HL-60(TB) leukemia): 8.87 µM
- GI50 (NCI-H522 lung): 4.68 µM
- TGI (NCI-H522 lung): 16.3 µM
- GI50 (SF-268 CNS): 2.74 µM
- TGI (SF-268 CNS): 8.28 µM
- GI50 (SNB-19 CNS): 5.3 µM
- TGI (SNB-19 CNS): 20.2 µM
- GI50 (CAKI-1 renal): 3.11 µM
- TGI (CAKI-1 renal): 18.6 µM
- GI50 (COLO 205 colon): 10.1 µM
- TGI (COLO 205 colon): 32.6 µM
- GI50 (HT29 colon): 2.04 µM
- TGI (HT29 colon): 3.74 µM
- GI50 (LOX IMVI melanoma): 1.82 µM
- TGI (LOX IMVI melanoma): 3.53 µM
- GI50 (DU-145 prostate): 3.73 µM
- TGI (DU-145 prostate): 14 µM
- GI50 (SK-OV-3 ovarian): 8.9 µM
- TGI (SK-OV-3 ovarian): 70.3 µM
- GI50 (SN12C renal): 2.35 µM
- TGI (SN12C renal): 5.58 µM
- GI50 (SK-MEL-2 melanoma): 16.6 µM
- TGI (SK-MEL-2 melanoma): 34.4 µM
- GI50 (NCI-H226 lung): 1.76 µM
- TGI (NCI-H226 lung): 3.54 µM
- GI50 (UACC-257 melanoma): 2.3 µM
- TGI (UACC-257 melanoma): 6.15 µM
- GI50 (HCT-116 colon): 1.5 µM
- TGI (HCT-116 colon): 2.82 µM
- GI50 (BT-549 breast): 2.33 µM
- TGI (BT-549 breast): 5 µM
- GI50 (OVCAR-5 ovarian): 2.68 µM
- TGI (OVCAR-5 ovarian): 7.93 µM
- GI50 (UO-31 renal): 1.89 µM
- TGI (UO-31 renal): 3.88 µM
- GI50 (SW-620 colon): 3.21 µM
- TGI (SW-620 colon): 11.6 µM
- GI50 (OVCAR-8 ovarian): 3.14 µM
- TGI (OVCAR-8 ovarian): 12.7 µM
- GI50 (T-47D breast): 5.09 µM
- TGI (T-47D breast): > 100 µM
- GI50 (SNB-75 CNS): 2.86 µM
- TGI (SNB-75 CNS): 17.6 µM
- GI50 (SK-MEL-5 melanoma): 3.25 µM
- TGI (SK-MEL-5 melanoma): 12.1 µM
- GI50 (A498 renal): 13.7 µM
- TGI (A498 renal): 28.4 µM
- GI50 (SK-MEL-28 melanoma): 3.9 µM
- TGI (SK-MEL-28 melanoma): 15.4 µM
- GI50 (HCT-15 colon): 1.68 µM
- TGI (HCT-15 colon): 3.24 µM
- GI50 (A549 NSCLC): 2.33 µM
- TGI (A549 NSCLC): 7.16 µM
- GI50 (OVCAR-4 ovarian): 2.78 µM
- TGI (OVCAR-4 ovarian): 8.47 µM
- GI50 (IGROV1 ovarian): 2.93 µM
- TGI (IGROV1 ovarian): 8.7 µM
- GI50 (MDA-MB-435): 2.21 µM
- TGI (MDA-MB-435): 5.05 µM
- GI50 (RPMI-8226 leukemia): 1.9 µM
- TGI (RPMI-8226 leukemia): 5.96 µM
- GI50 (M14 melanoma): 2.29 µM
- TGI (M14 melanoma): 5.31 µM
- GI50 (SF-295 CNS): 2.58 µM
- TGI (SF-295 CNS): 7 µM
- GI50 (KM12 colon): 2.7 µM
- TGI (KM12 colon): 6.4 µM
- GI50 (NCI-H23 lung): 3.38 µM
- TGI (NCI-H23 lung): 13.7 µM
- GI50 (MOLT-4 leukemia): 3.17 µM
- TGI (MOLT-4 leukemia): 10.7 µM
- GI50 (OVCAR-3 ovarian): 1.92 µM
- TGI (OVCAR-3 ovarian): 3.63 µM
- GI50 (K-562 leukemia): 2.94 µM
- TGI (K-562 leukemia): 8.77 µM
- GI50 (HS 578T breast): 8.06 µM
- TGI (HS 578T breast): > 100 µM
